Data published in US9486447B2, “Compositions and methods for controlling neuronal excitation” (The General Hospital Corporation, priority 2011, dated 2016).

Tests used:
[1] = Crossing of the epidermis after topical application; format: in vivo, human; conditions: humans as well as zebrafish
From the text: As described herein, photo-sensitive TrpA1 agonists can be bioavailable. […] In some embodiments, a photo-sensitive TrpA1 agonist can be bioavailable when administered systemically. […] In some embodiments, oral administration of a photo-sensitive TrpA1 agonist can be considered for any method described herein.
Photo-sensitive TrpA1 agonists described herein can be administered by any delivery method known in the art, including but not limited to, injection; parenteral, intravenous, intramuscular, subcutaneous, transdermal, airway (aerosol), pulmonary, direct application, microsurgery, endoscopic surgery, topically, orally, vaginally and/or by contact with the gastro-intestinal lumen. […] This would agonist to all, or at least a variety of tissues, depending e.g. upon design/modification of the agonist to limit or expand systemic bioavailability such that electromagnetic radiation applied to any desired location would be expected to activate neuronal activity at the site of irradiation. In some embodiments, the photo-sensitive TrpA1 agonist can be administered systemically. In some embodiments, the photo-sensitive TrpA1 agonist can be administered locally.

hTRPA1 C633S = biological target: T1, hTRPA1 C633S (Homo sapiens, UniProt O75762, C633S); test: Calcium imaging of transfected HEK cells; format: cell-based; conditions: compared with WT channels
T1 construct: expressed in transfected cells; host or cells: HEK293
T1 sequence (O75762 whole entry C633S): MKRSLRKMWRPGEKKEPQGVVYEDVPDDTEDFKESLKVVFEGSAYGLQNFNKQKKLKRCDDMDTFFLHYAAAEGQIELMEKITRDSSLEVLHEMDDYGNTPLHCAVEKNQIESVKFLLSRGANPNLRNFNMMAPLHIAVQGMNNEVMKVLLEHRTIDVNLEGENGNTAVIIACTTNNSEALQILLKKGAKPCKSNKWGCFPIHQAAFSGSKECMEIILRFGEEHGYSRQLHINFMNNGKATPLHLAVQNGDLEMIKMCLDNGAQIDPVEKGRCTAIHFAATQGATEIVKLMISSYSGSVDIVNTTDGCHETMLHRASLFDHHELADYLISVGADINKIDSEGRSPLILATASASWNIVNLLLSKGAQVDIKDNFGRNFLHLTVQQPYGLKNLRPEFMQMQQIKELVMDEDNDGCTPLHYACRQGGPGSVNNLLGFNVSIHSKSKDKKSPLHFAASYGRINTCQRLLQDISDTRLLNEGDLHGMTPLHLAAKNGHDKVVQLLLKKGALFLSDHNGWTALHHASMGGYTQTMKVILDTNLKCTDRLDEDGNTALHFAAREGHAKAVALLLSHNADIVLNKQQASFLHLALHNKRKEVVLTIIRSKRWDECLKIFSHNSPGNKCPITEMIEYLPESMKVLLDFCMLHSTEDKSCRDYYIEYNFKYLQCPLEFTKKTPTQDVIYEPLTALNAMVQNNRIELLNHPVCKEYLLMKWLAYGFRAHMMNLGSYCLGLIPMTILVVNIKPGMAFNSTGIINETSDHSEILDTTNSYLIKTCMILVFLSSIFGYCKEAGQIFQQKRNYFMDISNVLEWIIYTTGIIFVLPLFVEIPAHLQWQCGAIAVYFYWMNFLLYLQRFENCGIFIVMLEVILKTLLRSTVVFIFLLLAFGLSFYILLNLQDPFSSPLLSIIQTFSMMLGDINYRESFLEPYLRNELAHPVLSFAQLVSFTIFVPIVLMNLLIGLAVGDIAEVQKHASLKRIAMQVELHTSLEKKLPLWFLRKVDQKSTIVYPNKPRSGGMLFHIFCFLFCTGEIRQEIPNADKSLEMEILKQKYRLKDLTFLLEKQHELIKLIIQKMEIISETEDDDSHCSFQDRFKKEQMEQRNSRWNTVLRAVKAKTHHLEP
Description: (§1) Reactive electrophilic compounds activate TRPA1 channels through the covalent modification of specific cysteine residues including those at amino acid positions 621, 633, and 856. Point mutations in these cysteines can reduce hTRPA1 activation by specific ligands without disrupting overall channel function^39,40. To determine if these cysteine residues are also important for TRPA1 activation by optovin, intracellular calcium levels were measured in cells transfected with wildtype and mutant hTRPA1 channels. […] Rhodanine and hydantoin are photoelectric moieties used in photovoltaic panels and other photochemical applications^41,42. Nevertheless, photosensitization alone is insufficient to grant optovin its unusual biological activity. For example, optovin is phenotypically unique compared to 171 additional rhodanine-containing compounds contained in the screening library (data not shown).
(§2) HEK293 cells were plated onto poly-lysine-coated glass bottom culture dishes (MatTek Corp), and grown in Dulbecco's Modified Eagle's Medium (DMEM, Sigma) supplemented with 10% fetal bovine serum and 100 U/mL penicillin and 100 μg/ml streptomycin. After 24 hrs, cells were transfected, according to manufacturer's instructions, in Opti-MEM media, using 4 μl lipofectamine 2000 (Invitrogen), 0.5 ug EGFP in pcDNA, and 0.3 μg TrpA1 DNA per dish. Media was replaced after 2 hours, and cells were cultured for an additional 17 hours. As previously described for neurons, HEK cells were washed with assay buffer (HBSS Gibco 14025, supplemented with 9 mM HEPES, 11 mM D-glucose, 0.1% fatty-acid free BSA, pH 7.3) and incubated for 1 h with 2 μM Fura2-AM (Invitrogen) with 0.2% pluronic (Invitrogen) in assay buffer in the dark at room temperature. The cells were then washed with assay buffer and allowed to equilibrate at room temperature for 30 min prior to imaging. At the start of the imaging session for each dish, cells were replaced with DMSO-assay buffer. After 50 seconds of imaging, assay buffer was aspirated by hand, and replaced with 100 μM optovin dissolved in the DMSO-assay buffer solution. […]

hTRPA1 C621S = biological target: T2, hTRPA1 C621S (Homo sapiens, UniProt O75762, C621S); test: Calcium imaging of transfected HEK cells; format: cell-based; conditions: compared with WT channels
T2 construct: expressed in transfected cells; host or cells: HEK293
T2 sequence (O75762 whole entry C621S): as the sequence (O75762 whole entry C633S) above, with C621S, S633C counted along it
Description: as §1, §2

[2] = biological target: T3, hTRPA1 C633S/C856S double mutant (Homo sapiens, UniProt O75762, C633S/C856S); test: Calcium imaging of transfected HEK cells; format: cell-based; conditions: compared with WT channels
T3 construct: expressed in transfected cells; host or cells: HEK293
T3 sequence (O75762 whole entry C633S/C856S): as the sequence (O75762 whole entry C633S) above, with C856S counted along it
Description: as §1, §2

[3] = system: larvae and adult zebrafish; test: Long-term toxicity testing in zebrafish; format: in vivo
Description: Optovin is a rhodanine-containing small molecule with no previously annotated biological activity (FIG. 1D). […] Motor behavior in optovin-treated animals is elicited by radiation stimulus intensitites greater than 1.6 μW/mm^2 (FIG. 1G). […] To determine the long-term effects of optovin exposure on development, behavior and survival, the development, behavior and survival of larvae and adult zebrafish exposed to optovin (10 μM) for 96 hours were analyzed. […] Thus, optovin is a novel behavior-modifying compound that causes rapid and reversible motor excitation in response to violet light stimuli.
To determine the long-term effects of optovin exposure on development, behavior and survival, the development, behavior and survival of larvae (n=150) and adult zebrafish (n=2) exposed to 10 μM optovin for 96 hours was analyzed.

human TrpA1 (hTrpA1) = biological target: T4, human TrpA1 (hTrpA1) (Homo sapiens, UniProt O75762); test: Whole-cell patch clamp in transfected HEK293T cells; format: cell-based; conditions: 10 μM, following photo-stimulation (405 nm)
T4 construct: expressed in transfected cells; host or cells: HEK293 / HEK293T
T4 sequence (O75762 whole entry): as the sequence (O75762 whole entry C633S) above, with S633C counted along it
Description: To determine if TRPA1 is sufficient for optovin activity, current density amplitudes were analyzed via whole-cell patch clamping in HEK293T cells transfected with the human TrpA1 (hTrpA1) gene.
HEK293 cells were plated upon poly-lysine coated cover slips and transiently transfected with human TRPA1. Voltage clamp recordings were made in the whole-cell configuration 48 hours after transfection using glass electrodes with 2-4M ohm resistance when filled with (in mM) 140 CsCl, 2 Mg2ATP3, 2 MgCl, 5 EGTA, and 10 HEPES (pH adjusted to 7.2 with CsOH) and while bathed at room temperature in extracellular solution containing (in mM) 150 NaCl, 5.4 KCl, 1.8 CaCl2, 1 MgCl, and 5 mM HEPES (pH adjusted to 7.4 with NaOH). A voltage ramp protocol from −80 mV to +80 mV over 400 ms was repeated every 5 seconds during the following conditions: while the cell was dialyzed by the pipette, followed by at least 60 seconds of illumination with 405 nm light, after which optovin (10 μM) containing extracellular solution was perfused into the bath, followed by 1 minute of illumination. Current elicited at holding potentials of +/−70 mV were used to characterize TRPA1 activation.

Cc1cc(/C=C2/SC(=S)NC2=O)c(C)n1-c1cccnc1 [optovin]
crossing the epidermis to reach underlying muscles at an effective concentration [1]: able to cross the epidermis
response to light and optovin (intracellular calcium) (hTRPA1 C633S): significantly decreased response
response to light and optovin (intracellular calcium) (hTRPA1 C621S): significantly decreased response
response to light and optovin (intracellular calcium) [2]: significantly decreased response
differences in appearance, touch response, heart rate, fin movements, morphology or percentage survival vs untreated ([3]; 10 μM for 96 hours, larvae and adult zebrafish): No differences were identified
survival rates ([3]; 10 μM, larval or adult zebrafish): does not affect survival rates
signs of toxicity ([3]; after 48 hours of treatment): No signs of toxicity were observed
current density amplitudes in response to positive voltage steps (human TrpA1 (hTrpA1)): significantly increased
